Assay results published in US10793601B2, “Therapeutic spalt-like transcription factor 4 (SALL4) peptide” (National University of Singapore, priority 2016, dated 2020).
Several values for one entry are separate records, joined by “and”; a condition that tells them apart may be missing. Equal entries are not always repeated. Blank lines part the entries; values can stand above or below the compound they belong to. Ends that are not written are not given here.

Experiments:
[1] = biological target: T1, RBBp4 (Homo sapiens, UniProt Q09028); assay: Fluorescence polarization (FP) competition with FITC-labelled SALL4 WT peptide; assay type: binding; settings: for IC50: displacement of FITC-SALL4 WT peptide from RBBp4
T1 construct: purchased SinoBiological
Procedure: (§1) FIGS. 3A-3E. Key residues involved in SALL4 (1-12)-RBBp4 binding. […] The difference in the binding free energy (ΔΔGbind) of the alanine mutants (ΔGmutant, Ala7 was mutated to glycine) and wild type (ΔGwild type) was calculated (ΔΔGbind=ΔGmutant−ΔGwild type). ΔΔGbind was tabulated (left) and plotted in a bar chart (right). […] Mutated residues are highlighted in red. The IC50 of each peptide, including WT, was determined by Fluorescence Polarization (FP). Different concentrations of each peptide were titrated into a mixture of 0.04 μM RBBp4 and 0.01 μM of C-labelled FITC-SALL4 WT peptide. Polarization was measured in mP. […] Pep-1 carrier was added to the peptide to facilitate cellular penetration of the peptides.
Peptides were titrated into a master mix of 0.045 μM RBBp4 and […] C-terminal FITC-labelled WT peptide (synthesized by Thermo Scientific). Reactions were incubated at room temperature before the plate was read with an Envision instrument (Perkin Elmer). IC50 values of peptides were determined using Prism (GraphPad).

[2] = test system: SNU398 tumor xenografts; assay: SNU398 xenograft in NSG mice; assay type: in vivo, NOD/SCID/gamma mice; settings: for effect on tumor growth: SNU398 xenograft, tumor volume against time; for tumor weight: mean, tumors resected on day 20, five i.p. injections
Procedure: FIGS. 7A-7E. […] FIG. 7A: 7.2×10^5 SNU398 cells were inoculated subcutaneously into the right flank of NOD/SCID/gamma mice (NSG mice). Tumors were allowed to grow for one week before peptide treatments were administered every alternate day for a total of five injections. FIG. 7B: Tumor growth was documented by plotting tumor volume against time. […] FIG. 7C: Relative size of tumors resected on day 20. FIG. 7D: tumor weight was determined (n=5). […] FIG. 7E: Total RNA was isolated from the resected tumors and expression of PTEN was measured using real-time PCR.
FIGS. 9A-9E. […] FIG. 9A: PEN-FFW treated SNU398 tumor xenografts were compared to that of Sorafenib treated xenografts. FIG. 9B: PEN-FFW treated PLC8024 tumor xenografts were compared to that of Sorafenib treated xenografts. Mice body weight was measured to access toxicity of various peptides. FIG. 9C: Body weight of mice at day 17. FIG. 9D: Differences of body weight compared to day 0 (As indicated by the arrow in far left of FIG. 7A). FIG. 9E: Body weight of mice at day 19th in the experiment shown in FIG. 9A comparing effect of Sorafenib and PEN-FFW. Data represent mean±s.d. (n=5).
All mice were treated in accordance with Responsible Care and Use of Laboratory animals. In the SNU398 in vivo studies, 6-8-week-old female C.B-17 severe combined immunodeficient (SCID) mice (NSG) were inoculated s.c. into the flank with 7.2×10^5 cells in 2:1 PBS/Matrigel (BD Biosciences). The tumours were then allowed to develop to the size of 50-70 mm3 before intraperitoneal injections of the different peptides were given at two to three-day intervals for a total of 5 injections. Mice were randomly grouped in sets of six and treated with PEN (penetratin control), PEN-MUT (mutant control), PEN-WT (wild type control) and PEN-FFW (peptide 47). Tumor volumes were measured every 5 days and tumor weight were measured at the end point. For PEN control, 22.5 mg/kg were given; for PEN-MUT, PEN-WT and PEN-FFW, 35.6 mg/kg, 37 mg/kg and 36 mg/kg were given respectively to the mice according to their body weight Tumor measurements were taken twice weekly using Vernier calipers. Tumor volume was estimated using the following formula: V=0.5×width×width×length. When tumors approached ˜50 mm3, mice were randomized into groups of 5 animals each and received peptides treatment three times weekly by i.p. injection. All statistical analysis was done using a one-way ANOVA and Student's T-test.

[3] = test system: SNU398; assay: RNA-seq transcriptome analysis of treated SNU398; assay type: cell-based; settings: for log2 fd versus Contr (PEN + Mut), ADORA2A-AS1: gene ADORA2A-AS1, SNU398, 8 hrs; for log2 fd versus Contr (PEN + Mut), AVPR2: gene AVPR2, SNU398, 8 hrs; for log2 fd versus Contr (PEN + Mut), CSAD: gene CSAD; for log2 fd versus Contr (PEN + Mut), CSAD / log2 fd versus Contr (PEN + Mut), SSPO: SNU398, 8 hrs; for log2 fd versus Contr (PEN + Mut), DNASE1L2: gene DNASE1L2, SNU398, 8 hrs; for log2 fd versus Contr (PEN + Mut), LOC619207: gene LOC619207, SNU398, 8 hrs; for log2 fd versus Contr (PEN + Mut), NEIL1: gene NEIL1, SNU398, 8 hrs; for log2 fd versus Contr (PEN + Mut), PRKXP1: gene PRKXP1, SNU398, 8 hrs; for log2 fd versus Contr (PEN + Mut), SSPO: gene SSPO
Procedure: SNU398 were treated PEN, PEN-MUT, PEN-WT & PEN-FFW for 8 hrs and paired-end RNA-seq was performed for the treated samples. RNA-seq reads of each sample were mapped to hg19 using the STAR aligner. Normalization between the samples was based on the proportionality of the numbers of the mapped reads. The expression fold change of a transcript was obtained using linear regression of the reads between the two samples cross all exons. Differential expression between two samples was selected by using the fold change cut off of 2. Hierarchical clustering was performed based on average linkage to generate the clustering tree as well as heat maps. For identification of enriched gene sets or pathways, Gene Set Enrichment Analysis (GSEA) was performed based on the normalized data and using the GSEA tool (broad.mit.edu/gsea/) with msigdb.v5.0.

[4] = test system: SNU398 cells; assay: Cell viability assay in SNU398 cells; assay type: cell-based; settings: for EC50: 72 h; for effect on cell number: SNU398, Pep-1 carrier added
Procedure: as §1
FIGS. 5A-5B. Development of a potent therapeutic peptide FFW.
SNU398 was grown in RPMI supplemented with 10% fetal bovine serum (FBS) at 37° C. in a humidified atmosphere of 5% CO2. 3000 cells were seeded in each well of a 96 well plate with 100 μL of medium. Before peptide treatment, cells were washed twice with PBS and treated with different concentrations of peptide in OPTIMEM (LifeTech). Media was added after 4 hrs of incubation at 37° C., and cells incubated for another 68 hrs. Tetrazolium (CellTiter96 AQueous One Solution Cell Proliferation Assay, Promega) was added after 72 hrs incubation with the peptides, and the plate was read at a plate reader at 490 nm after 1 hr of incubation in the dark at 37° C.

[5] = test system: PLC8024 tumor xenografts; assay: PLC8024 xenograft (Sorafenib-resistant HCC); assay type: in vivo, mice
Procedure: FIGS. 9A-9E. Clinical significance of PEN-FFW compared to Sorafenib. FIG. 9A: PEN-FFW treated SNU398 tumor xenografts were compared to that of Sorafenib treated xenografts. FIG. 9B: PEN-FFW treated PLC8024 tumor xenografts were compared to that of Sorafenib treated xenografts. Mice body weight was measured to access toxicity of various peptides. FIG. 9C: Body weight of mice at day 17. FIG. 9D: Differences of body weight compared to day 0 (As indicated by the arrow in far left of FIG. 7A). FIG. 9E: Body weight of mice at day 19th in the experiment shown in FIG. 9A comparing effect of Sorafenib and PEN-FFW. Data represent mean±s.d. (n=5).
Clinical significance of PEN-FFW was studied in vivo by benchmarking against current therapy using Sorafenib. PEN-FFW treated SNU398 tumor xenografts were compared to that of Sorafenib treated xenografts (FIG. 9A). […] Potential therapeutic effect of PEN-FFW in HCC patients that are refractory to Sorafenib treatment was studied also studied in vivo. using a HCC cell line, PLC8024 which is SALL4 positive, CD133+ and is both chemo- and radio-resistant (Li et al., BMC Cancer 2016, 16, 15; Ma et al., Oncogene 2008, 27: 1749-1758), for the xenograft study.

[6] = biological target: T1, RBBp4; assay: Surface plasmon resonance (SPR), RBBp4 immobilised on CM5 chip; assay type: binding
Procedure: (§2) FIGS. 1A-1B. Binding affinity of WT SALL4 (1-12 aa) to RBBp4.
SPR studies were performed using a Biacore T200 biosensor (GE Healthsciences). ˜12,000 resonance units (RU) of RBBp4 were immobilised by amine coupling to the carboxymethylated dextran matrix of a Series S CM5 chip (Biacore, GE Healthcare). Multi cycle kinetics analysis was performed at 25° C. through seven injections of SALL4 peptide (0.5 μM-8 μM). The association time and flow rate were set at 60 s and 30 μl/min respectively. The sensograms obtained were of good quality and kinetic rate constants were determined by curve fitting.

[7] = biological target: T1, RBBp4; assay: Isothermal titration calorimetry (ITC) of SALL4 peptide against RBBp4; settings: 25° C., 1:1 binding model
Procedure: as §2
ITC was carried out with an Auto-iTC200 instrument from Microcal Inc. at 25° C. […] of RBBp4 in 50 mM Tris and 100 mM NaCl at pH 7.4 was loaded into the ITC cell. Sal14 peptide at […] was auto-loaded into the syringe. The titration was carried out with 18 injections of 2.4 μl, performed over a period of 30 min with stirring at 1000 rpm. The ITC data was analysed using Origin software from Microcal.

[8] = test system: PTEN; assay: PTEN transcript level by quantitative real-time PCR in SNU398 cells; assay type: cell-based; settings: Q-PCR
[9] = Plasma stability by LC-MS/MS
Procedure: PEN-FFW was incubated with human plasma (pH7.4) at 37° C. over a 24 hour period (5 timepoints). Incubations were performed at a concentration of 1 μM (final DMSO concentration 2.5%). Reactions were terminated at 0, 5, 10, 15, 30 min, or 0, 1, 2, 4 and 24 hour, by addition of 2 volumes of methanol containing 1% Formic acid. The samples were centrifuged (2500 rpm, 45 min, 4° C.) and the supernatants diluted with 2 volumes of 0.2% Formic acid (aq) (containing Metoprolol (internal standard)). […] The percentage of parent peptide remaining at each time point relative to the 0 min sample was calculated from LC-MS/MS peak area ratios (compound peak area/internal standard peak area).

T1 sequence (Q09028 whole entry): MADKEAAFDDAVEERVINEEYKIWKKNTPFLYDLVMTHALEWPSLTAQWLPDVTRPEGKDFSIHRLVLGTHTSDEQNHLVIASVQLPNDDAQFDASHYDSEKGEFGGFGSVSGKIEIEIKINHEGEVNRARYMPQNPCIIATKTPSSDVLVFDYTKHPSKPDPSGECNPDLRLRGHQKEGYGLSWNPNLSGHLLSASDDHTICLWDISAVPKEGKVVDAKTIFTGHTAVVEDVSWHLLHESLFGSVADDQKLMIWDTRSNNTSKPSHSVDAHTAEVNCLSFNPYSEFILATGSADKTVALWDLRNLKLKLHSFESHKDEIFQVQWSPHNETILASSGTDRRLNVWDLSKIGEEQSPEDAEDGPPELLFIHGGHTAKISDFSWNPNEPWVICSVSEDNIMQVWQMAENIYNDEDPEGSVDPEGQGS

enhancement in binding affinity over that of peptide 6 ([1]; ratio of FP IC50 values): 7 fold
Compound: Ac-RRKFAKPQHI-NH2 [Peptide 24]

IC50 [1]: 170 nM
Compound: Ac-RRKQAKFQHI-NH2 [Peptide 34]

IC50 [1]: 270 ± 100 nM
Compound: Ac-RRKLAKPQHI-NH2 [Peptide 23]

IC50 [1]: 23 nM
increase in affinity as compared with the original 12-residue WT peptide ([1]; ratio of FP IC50 values): > 56 fold
Compound: Ac-RRKFAKFQWI-NH2 [Peptide 46]
log2 fd versus Contr (PEN + Mut), ADORA2A-AS1 [3]: 2.17
log2 fd versus Contr (PEN + Mut), AVPR2 [3]: 1.53
log2 fd versus Contr (PEN + Mut), CSAD [3]: 1.09
log2 fd versus Contr (PEN + Mut), DNASE1L2 [3]: 1.11
log2 fd versus Contr (PEN + Mut), LOC619207 [3]: 1.33
log2 fd versus Contr (PEN + Mut), NEIL1 [3]: 1.11
log2 fd versus Contr (PEN + Mut), PRKXP1 [3]: 2.12
log2 fd versus Contr (PEN + Mut), SSPO [3]: 2.40

IC50 [1]: 460 ± 100 nM
Compound: Ac-RRKQAKPLHI-NH2 [Peptide 38]

IC50 [1]: 460 ± 100 nM
Compound: Ac-RRKQRKPQHI-NH2 [Peptide 26]

IC50 [1]: 4400 ± 1100 nM
Compound: Ac-RRKQAKLQHI-NH2 [Peptide 33]

IC50 [1]: 3800 ± 500 nM
Compound: Ac-KRKQAKPQHI-NH2 [Peptide 17]

IC50 [1]: 120 nM
enhancement in binding affinity over that of peptide 6 ([1]; ratio of FP IC50 values): 3 fold
Compound: Ac-RRKQAKPQWI-NH2 [Peptide 41]

Further lines, the compound ahead of its results:

Compound: Ac-RKQAKPQHI-NH2 [Peptide 7]
IC50 [1]: > 20000 nM

Compound: Ac-RAKQAKPQHI-NH2 [Peptide 9]
IC50 [1]: > 20000 nM

Compound: Ac-RRKQAKAQHI-NH2 [Peptide 13]
IC50 [1]: 270 ± 30 nM

Compound: Ac-ARKQAKPQHI-NH2 [Peptide 8]
IC50 [1]: > 20000 nM

Compound: Ac-MSRRKQAKPQ-NH2 [Peptide 3]
IC50 [1]: 800 nM

Compound: Ac-SRRKQAKPQHI-NH2 [Peptide 5]
IC50 [1]: 600 nM

Compound: RQIKIWFQNRRMKWKK [PEN]
effect on tumor growth [2]: neither peptide was able to inhibit tumor growth
tumor weight [2]: 1550.78 mg

Compound: Ac-RRKQAKPAHI-NH2 [Peptide 14]
IC50 [1]: 120 ± 10 nM

Compound: RQIKIWFQNRRMKWKKMSARAQAKPQHI [PEN-MUT]
EC50 [4]: > 100 µM
effect on tumor growth [2]: neither peptide was able to inhibit tumor growth
tumor weight [2]: 1273.46 mg

Compound: Ac-RRKQAKPQHA-NH2 [Peptide 16]
IC50 [1]: 460 ± 200 nM

Compound: Ac-RRRQAKPQHI-NH2 [Peptide 6]
IC50 [1]: 360 nM

Compound: Ac-RRAQAKPQHI-NH2 [Peptide 10]
IC50 [1]: > 20000 nM

Compound: CNC(=O)c1cc(Oc2ccc(NC(=O)Nc3ccc(Cl)c(C(F)(F)F)c3)cc2)ccn1 [Sorafenib, reference compound]
tumor growth as compared to the control group [5]: 1.5 fold

Compound: Ac-MSRRKQAKPQHI-NH2 [Peptide 1, reference compound]
koff [6]: 0.026 ± 0.00045 s⁻¹
kon [6]: 16800 ± 460 M⁻¹ s⁻¹
Kd [7]: 1040 ± 60 nM
IC50 [1]: 1040 ± 200 nM
effect on cell number [4]: exerts an inhibitory effect on cell number
log2 fd versus Contr (PEN + Mut), ADORA2A-AS1 [3]: 1.05
log2 fd versus Contr (PEN + Mut), AVPR2 [3]: 0.11
log2 fd versus Contr (PEN + Mut), CSAD [3]: 0.25
log2 fd versus Contr (PEN + Mut), DNASE1L2 [3]: 0.42
log2 fd versus Contr (PEN + Mut), LOC619207 [3]: 0.36
log2 fd versus Contr (PEN + Mut), NEIL1 [3]: 0.30
log2 fd versus Contr (PEN + Mut), PRKXP1 [3]: 0.62
log2 fd versus Contr (PEN + Mut), SSPO [3]: 0.99
increase in PTEN expression compared to untreated cells [8]: 3 fold

Compound: Ac-MSARAQAKPQHI-NH2 (N-terminus and C-terminus assumed) [MUT]
effect on cell number [4]: does not
increase in PTEN expression compared to untreated cells [8]: no significant change

Compound: CC1CC(OC(=O)C(O)c2ccccc2)CC(C)(C)N1C (centres unmarked) [Eucatropine]
peptide/compound remaining in the plasma ([9]; human plasma, 37° C., 1 μM, after 30 min): 40%
remaining at 0.5 h, 1 μM ([9]; human, pH 7.4): 40%

Compound: RQIKIWFQNRRMKWKKMSRRKQAKPQHI [PEN-WT]
EC50 [4]: 30 µM
effect on tumor growth [2]: markedly impaired tumor growth
tumor weight [2]: 563.46 mg and 564 mg
